# Activity calls are given as the source filed them.
# How the values were obtained:
# [1] = inhibitors of intracellular T. cruzi replication, confirmation, NIH3T3 host cells, beta-gal luminescence (AID 2044); format: functional, cell-based;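 also: intracellular parasites grown in NIH/3T3 mouse fibroblasts as host cells; luminescent beta-galactosidase reporter signal from transgenic T. cruzi replicating inside host cells; inhibitors lower the luminescence signal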
# [2] = insulin promoter down-regulators in MIN6 cells, imaging, high-content screening, mouse beta cells (AID 1628); format: functional
# [3] = cytotoxicity toward NIH3T3 fibroblasts, dose response, counter-screen, cell-based, ATP luminescence, mouse fibroblasts (AID 2010); format: functional;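 also: cells exposed to compound for about 90 hours before reading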
# INS1 = assay: beta cell apoptosis inhibitors, cytokine rescue, dose response, luminescence, retest (AID 449756); format: functional, cell-based; conditions: Rattus norvegicus;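 also: cell death triggered by IL-1 beta plus TNF-alpha plus IFN-gamma mixture; protective hits raise ATP signal compared with cytokine alone wells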
# [4] = cytotoxicity in MIN6 insulinoma cells, dose response, cytotoxicity control, cell-based, mouse insulinoma (AID 2122); format: functional;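 also: confirmatory high-throughput counterscreen run to flag cytotoxic compounds; mouse MIN-6 beta cells carrying an insulin promoter eGFP reporter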
# [5] = biological target: DNA dC->dU-editing enzyme APOBEC-3G (Homo sapiens, UniProt Q9HC16); assay: APOBEC3G deaminase inhibitors, SAR follow-up, biochemical, fluorescence, single-stranded DNA substrate (AID 602136); format: functional; conditions: read-out: IC50_Mean
# [6] = biological target: DNA dC->dU-editing enzyme APOBEC-3A (Homo sapiens, UniProt P31941); assay: SAR analysis of small molecule inhibitors of APOBEC3A DNA Deaminase via a fluorescence-based single-stranded DNA deaminase assay.; format: functional; conditions: read-out: IC50_Mean
# Cytochrome P450 2D6 = Cytochrome P450 2D6 (Homo sapiens, UniProt P10635);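 also: CYP2D6 member of a cytochrome P450 panel assay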
# [7] = biological target: T1, DNA repair and recombination protein RAD54-like (Homo sapiens, UniProt Q92698); assay: inhibitors of human RAD54 branch migration, confirmation, biochemical, fluorescence, cherry-picked samples, dose series (AID 651657); format: functional
# T1 sequence (Q92698 whole entry): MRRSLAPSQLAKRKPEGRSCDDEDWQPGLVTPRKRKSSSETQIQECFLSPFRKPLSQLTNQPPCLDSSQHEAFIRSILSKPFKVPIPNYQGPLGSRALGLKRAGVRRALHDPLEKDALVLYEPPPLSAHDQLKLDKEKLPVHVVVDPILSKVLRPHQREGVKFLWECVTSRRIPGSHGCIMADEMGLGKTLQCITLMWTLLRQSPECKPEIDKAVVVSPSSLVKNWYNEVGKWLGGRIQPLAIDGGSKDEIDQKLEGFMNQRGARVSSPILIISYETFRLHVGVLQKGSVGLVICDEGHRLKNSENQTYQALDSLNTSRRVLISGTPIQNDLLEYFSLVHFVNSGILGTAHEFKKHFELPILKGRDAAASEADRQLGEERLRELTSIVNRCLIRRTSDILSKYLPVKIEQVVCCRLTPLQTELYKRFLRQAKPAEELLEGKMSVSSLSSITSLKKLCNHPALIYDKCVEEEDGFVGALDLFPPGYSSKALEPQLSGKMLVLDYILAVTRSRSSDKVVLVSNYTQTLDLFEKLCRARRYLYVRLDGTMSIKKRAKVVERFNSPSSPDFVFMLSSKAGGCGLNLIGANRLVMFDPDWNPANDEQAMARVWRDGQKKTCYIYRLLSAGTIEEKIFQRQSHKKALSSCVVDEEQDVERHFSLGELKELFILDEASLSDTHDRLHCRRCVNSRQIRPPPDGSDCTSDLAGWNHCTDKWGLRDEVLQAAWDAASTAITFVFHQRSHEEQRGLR
# [8] = biological target: T2, Mannose-6-phosphate isomerase (Homo sapiens, UniProt P34949); assay: PMI enzyme inhibitors, confirmation, biochemical, fluorescence intensity (AID 1535)
# T2 sequence (P34949 whole entry): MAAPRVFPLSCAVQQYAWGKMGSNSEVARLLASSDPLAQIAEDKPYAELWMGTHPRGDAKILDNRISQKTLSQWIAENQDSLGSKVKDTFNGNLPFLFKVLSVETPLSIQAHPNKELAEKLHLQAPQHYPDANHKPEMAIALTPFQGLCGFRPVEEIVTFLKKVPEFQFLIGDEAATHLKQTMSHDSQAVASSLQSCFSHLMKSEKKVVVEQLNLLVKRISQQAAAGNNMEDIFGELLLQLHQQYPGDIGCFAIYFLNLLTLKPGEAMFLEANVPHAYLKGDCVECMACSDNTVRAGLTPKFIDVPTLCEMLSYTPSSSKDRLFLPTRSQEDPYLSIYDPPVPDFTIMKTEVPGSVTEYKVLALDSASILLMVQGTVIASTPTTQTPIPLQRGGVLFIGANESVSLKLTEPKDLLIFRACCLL
# [9] = biological target: Glucose-6-phosphate 1-dehydrogenase (Homo sapiens, UniProt P11413); assay: human G6PD enzyme inhibitors, dose response, selectivity assay for P. falciparum G6PD inhibitor project, biochemical, fluorescence (AID 504792); format: functional
# [10] = biological target: T3, E3 ubiquitin-protein ligase XIAP (Homo sapiens, UniProt P98170); assay: Counter Screen using XIAP-Bir3 for Chemical Antagonists of Bir1/2 domains of IAP-family anti-apoptotic proteins. [Related pubchem assays (depositor defined):AID1018, AID1449, AID1514, AID1638, AID1749, AID1750, AID488957, AID488963]
# [11] = biological target: T3, E3 ubiquitin-protein ligase XIAP; assay: XIAP antagonists, biochemical, IAP family, fluorescence polarization (AID 1018); format: functional
# Cytochrome P450 3A4 = Cytochrome P450 3A4 (Homo sapiens, UniProt P08684);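 also: CYP3A4 tested as one member of a cytochrome P450 panel screen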
# [12] = microbe, parasite or virus in culture; format: functional; conditions: Mycobacterium tuberculosis
# [13] = biological target: Dual specificity tyrosine-phosphorylation-regulated kinase 1A (Rattus norvegicus, UniProt Q63470); format: biochemical, Homo sapiens
# [14] = control 3'UTR Renilla luciferase suppression, dose response, counter-screen for Shn3 inhibitor project, cell-based, Clone20-Shn3RL, cherry-picked (AID 624133); format: functional
# [15] = Shn3 3'UTR reporter inhibitors, dose response, cell-based, Clone20 osteoblasts, firefly luciferase, cherry-picked (AID 624132); format: functional;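 also: firefly luciferase luminescence from reporter carrying the Shn3 3'UTR in osteoblasts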
# Protein Wnt-3a = Protein Wnt-3a (Mus musculus, UniProt P27467); assay: Wnt3a-driven reporter signaling inhibition, dose response, selectivity assay for Gli-SUFU antagonist project, Wnt-LIGHT cells, luminescence (AID 651570); format: functional; conditions: read-out: IC50_Mean;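 also: Wnt-LIGHT reporter cells stimulated with conditioned medium from Wnt3a-producing cells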
# [16] = biological target: T4, Microphthalmia-associated transcription factor (Homo sapiens, UniProt O75030); assay: TRPM1 promoter luciferase signal decrease, dose response, MITF inhibitor project, cell-based, SK-MEL-5, cherry-picked, set 3 (AID 493073); format: functional
# T4 sequence (O75030 whole entry): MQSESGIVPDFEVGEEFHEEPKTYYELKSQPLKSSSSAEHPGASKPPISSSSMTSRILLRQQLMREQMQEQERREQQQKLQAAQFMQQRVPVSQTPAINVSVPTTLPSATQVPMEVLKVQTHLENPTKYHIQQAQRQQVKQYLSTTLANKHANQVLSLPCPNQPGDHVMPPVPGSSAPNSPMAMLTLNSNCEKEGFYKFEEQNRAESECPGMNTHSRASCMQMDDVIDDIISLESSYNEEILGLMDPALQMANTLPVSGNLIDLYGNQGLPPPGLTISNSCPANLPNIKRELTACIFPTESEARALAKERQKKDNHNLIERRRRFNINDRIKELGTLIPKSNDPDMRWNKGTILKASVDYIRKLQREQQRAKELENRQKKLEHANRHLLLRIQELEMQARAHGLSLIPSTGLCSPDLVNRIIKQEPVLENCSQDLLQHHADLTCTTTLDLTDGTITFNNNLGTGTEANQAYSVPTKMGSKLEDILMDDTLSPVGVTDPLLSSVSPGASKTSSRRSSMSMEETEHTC
# [17] = biological target: E3 ubiquitin-protein ligase Mdm2 (Homo sapiens, UniProt Q00987); assay: enhancers of MDM2-luciferase reporter signal, concentration-effect titration, project on inhibitors of MDM2 ubiquitin ligase, cellular assay, luminescent readout, 384-well plate format (AID 1394); format: functional;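 also: MDM2 E3 inhibitors raise luminescence so EC50 is for signal enhancement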
# [18] = biological target: T5, Alkaline phosphatase, tissue-nonspecific isozyme (Homo sapiens, UniProt P05186); assay: human TNAP enzyme inhibitors, SAR follow-up, biochemical, luminescent, dose response (AID 1056)
# T5 sequence (P05186 whole entry): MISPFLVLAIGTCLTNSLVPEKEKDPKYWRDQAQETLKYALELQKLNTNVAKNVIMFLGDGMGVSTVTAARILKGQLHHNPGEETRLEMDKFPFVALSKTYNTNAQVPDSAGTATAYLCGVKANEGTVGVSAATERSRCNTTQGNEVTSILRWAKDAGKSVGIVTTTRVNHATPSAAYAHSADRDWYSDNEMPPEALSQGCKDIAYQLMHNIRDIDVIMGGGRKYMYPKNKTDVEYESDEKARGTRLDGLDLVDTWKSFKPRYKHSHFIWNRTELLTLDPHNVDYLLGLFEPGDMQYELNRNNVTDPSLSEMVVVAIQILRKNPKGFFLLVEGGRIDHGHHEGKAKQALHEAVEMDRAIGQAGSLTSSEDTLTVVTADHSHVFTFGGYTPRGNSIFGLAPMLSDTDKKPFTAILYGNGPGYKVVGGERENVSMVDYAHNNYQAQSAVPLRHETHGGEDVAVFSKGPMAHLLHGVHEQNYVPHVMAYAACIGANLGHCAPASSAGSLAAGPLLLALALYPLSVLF
# HEK293 = assay: inhibitors of LMP1-driven NF-kB reporter, dose response, cell-based, HEK293, luciferase, cherry-pick (AID 588343); format: functional; conditions: Homo sapiens
# Chain of Cytochrome P450 2D6 (P10635 whole entry): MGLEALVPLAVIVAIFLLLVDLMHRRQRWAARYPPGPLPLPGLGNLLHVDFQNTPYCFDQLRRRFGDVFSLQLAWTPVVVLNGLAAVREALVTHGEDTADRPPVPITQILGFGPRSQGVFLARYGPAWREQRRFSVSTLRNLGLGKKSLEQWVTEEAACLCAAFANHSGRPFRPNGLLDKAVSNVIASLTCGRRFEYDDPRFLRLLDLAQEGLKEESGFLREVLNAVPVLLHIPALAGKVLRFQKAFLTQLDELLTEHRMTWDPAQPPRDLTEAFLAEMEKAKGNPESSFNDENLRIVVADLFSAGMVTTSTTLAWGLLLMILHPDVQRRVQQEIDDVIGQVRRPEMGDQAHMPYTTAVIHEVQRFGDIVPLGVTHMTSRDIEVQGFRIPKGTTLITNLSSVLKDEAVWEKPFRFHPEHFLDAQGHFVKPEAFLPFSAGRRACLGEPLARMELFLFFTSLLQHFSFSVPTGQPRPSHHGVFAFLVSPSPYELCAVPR
# Chain of DNA dC->dU-editing enzyme APOBEC-3G (Q9HC16 whole entry): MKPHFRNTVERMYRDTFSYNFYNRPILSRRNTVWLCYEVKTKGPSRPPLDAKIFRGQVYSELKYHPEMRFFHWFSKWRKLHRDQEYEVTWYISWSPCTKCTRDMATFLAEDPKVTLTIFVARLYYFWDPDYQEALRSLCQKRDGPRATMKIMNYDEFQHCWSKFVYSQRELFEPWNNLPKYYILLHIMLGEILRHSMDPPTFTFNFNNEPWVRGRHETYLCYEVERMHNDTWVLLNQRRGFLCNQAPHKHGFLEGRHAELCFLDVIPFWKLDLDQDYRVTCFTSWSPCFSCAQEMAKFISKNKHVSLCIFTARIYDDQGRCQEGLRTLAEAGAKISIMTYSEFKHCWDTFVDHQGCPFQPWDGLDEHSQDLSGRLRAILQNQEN
# Chain of DNA dC->dU-editing enzyme APOBEC-3A (P31941 whole entry): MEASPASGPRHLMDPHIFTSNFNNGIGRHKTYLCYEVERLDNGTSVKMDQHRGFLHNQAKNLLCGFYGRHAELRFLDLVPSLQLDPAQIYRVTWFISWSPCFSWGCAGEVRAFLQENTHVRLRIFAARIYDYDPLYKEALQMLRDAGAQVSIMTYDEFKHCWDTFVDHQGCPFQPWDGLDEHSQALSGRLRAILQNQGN
# T3 sequence (P98170 whole entry): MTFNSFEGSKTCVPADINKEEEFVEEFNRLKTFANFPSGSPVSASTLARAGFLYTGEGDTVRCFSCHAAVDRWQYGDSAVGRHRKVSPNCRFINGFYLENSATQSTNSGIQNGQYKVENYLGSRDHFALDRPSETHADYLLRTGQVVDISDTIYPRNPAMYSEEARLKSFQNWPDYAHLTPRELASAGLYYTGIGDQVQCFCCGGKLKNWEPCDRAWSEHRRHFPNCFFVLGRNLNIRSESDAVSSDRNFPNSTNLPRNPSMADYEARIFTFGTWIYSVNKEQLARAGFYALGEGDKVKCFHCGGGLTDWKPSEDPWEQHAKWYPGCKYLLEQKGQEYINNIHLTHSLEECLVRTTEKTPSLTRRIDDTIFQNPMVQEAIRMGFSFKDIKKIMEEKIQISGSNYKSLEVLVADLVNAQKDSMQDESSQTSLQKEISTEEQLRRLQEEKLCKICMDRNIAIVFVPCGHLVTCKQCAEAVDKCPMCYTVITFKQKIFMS
# Chain of Protein Wnt-3a (P27467 whole entry): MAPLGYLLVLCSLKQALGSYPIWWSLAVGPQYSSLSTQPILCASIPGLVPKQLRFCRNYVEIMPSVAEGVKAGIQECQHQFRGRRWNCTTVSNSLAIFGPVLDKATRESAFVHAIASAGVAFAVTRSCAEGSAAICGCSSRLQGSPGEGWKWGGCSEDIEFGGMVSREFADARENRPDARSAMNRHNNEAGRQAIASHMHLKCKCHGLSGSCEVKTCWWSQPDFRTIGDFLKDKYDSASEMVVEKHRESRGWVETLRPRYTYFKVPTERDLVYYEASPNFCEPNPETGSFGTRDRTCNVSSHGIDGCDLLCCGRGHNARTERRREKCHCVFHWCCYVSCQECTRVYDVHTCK
# Chain of Glucose-6-phosphate 1-dehydrogenase (P11413 whole entry): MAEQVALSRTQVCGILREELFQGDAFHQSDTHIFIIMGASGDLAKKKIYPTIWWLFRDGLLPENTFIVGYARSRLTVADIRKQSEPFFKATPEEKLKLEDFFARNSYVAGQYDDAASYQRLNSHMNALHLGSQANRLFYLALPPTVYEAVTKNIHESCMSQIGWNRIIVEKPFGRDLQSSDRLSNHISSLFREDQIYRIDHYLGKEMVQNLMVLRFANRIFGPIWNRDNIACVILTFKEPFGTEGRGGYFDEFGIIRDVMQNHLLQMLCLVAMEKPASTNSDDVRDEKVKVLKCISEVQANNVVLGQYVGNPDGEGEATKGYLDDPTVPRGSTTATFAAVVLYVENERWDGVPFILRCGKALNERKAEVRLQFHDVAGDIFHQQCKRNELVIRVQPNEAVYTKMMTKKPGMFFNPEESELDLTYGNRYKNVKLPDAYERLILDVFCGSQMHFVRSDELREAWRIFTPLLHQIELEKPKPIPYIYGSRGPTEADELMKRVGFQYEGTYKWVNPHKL
# Chain of Cytochrome P450 3A4 (P08684 whole entry): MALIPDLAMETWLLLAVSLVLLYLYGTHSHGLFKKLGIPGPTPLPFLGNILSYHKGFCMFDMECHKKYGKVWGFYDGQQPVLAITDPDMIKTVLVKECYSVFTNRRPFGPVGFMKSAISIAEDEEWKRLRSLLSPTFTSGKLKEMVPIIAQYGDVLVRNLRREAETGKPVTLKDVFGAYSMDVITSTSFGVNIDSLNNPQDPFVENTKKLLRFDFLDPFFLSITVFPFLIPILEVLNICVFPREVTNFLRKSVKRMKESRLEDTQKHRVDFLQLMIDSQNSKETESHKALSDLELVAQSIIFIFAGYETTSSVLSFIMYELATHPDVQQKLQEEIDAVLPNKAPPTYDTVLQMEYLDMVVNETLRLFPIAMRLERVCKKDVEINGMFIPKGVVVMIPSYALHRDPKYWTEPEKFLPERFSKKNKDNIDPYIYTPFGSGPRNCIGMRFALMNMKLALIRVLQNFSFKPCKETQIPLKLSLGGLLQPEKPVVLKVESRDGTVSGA
# Chain of E3 ubiquitin-protein ligase Mdm2 (Q00987 whole entry): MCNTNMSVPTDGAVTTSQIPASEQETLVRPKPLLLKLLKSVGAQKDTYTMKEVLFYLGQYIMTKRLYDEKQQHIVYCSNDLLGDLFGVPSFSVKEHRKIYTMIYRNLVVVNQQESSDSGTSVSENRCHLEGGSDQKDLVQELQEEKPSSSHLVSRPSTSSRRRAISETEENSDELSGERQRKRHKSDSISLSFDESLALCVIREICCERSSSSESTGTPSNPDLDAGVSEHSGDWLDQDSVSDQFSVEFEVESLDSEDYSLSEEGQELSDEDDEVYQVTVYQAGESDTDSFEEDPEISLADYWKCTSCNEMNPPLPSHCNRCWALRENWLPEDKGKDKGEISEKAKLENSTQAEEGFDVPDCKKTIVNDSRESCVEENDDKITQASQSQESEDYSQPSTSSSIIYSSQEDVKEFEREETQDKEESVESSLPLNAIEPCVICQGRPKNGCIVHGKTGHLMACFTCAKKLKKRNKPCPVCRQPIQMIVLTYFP
smiles,measurement,setting,value
O=C(Nc1nc2ccc([N+](=O)[O-])cc2s1)c1ccc(S(=O)(=O)N2CCCc3ccccc32)cc1,EC50,[1],2.01 µM (active)
same,IC50,[2],2.16 µM (active)
same,EC50,[3],> 30 µM (not active)
same,AC50,INS1,3.34 µM (active)
same,IC50,[4],1.46 µM (active)
Cc1ccc(CN(C)C(=O)CSc2nnc(-c3ccc(F)cc3)n2C)o1,IC50,[5],> 99 µM (inactive)
same,IC50,[6],> 99 µM (inactive)
O=C1CN(/N=C\c2ccc(-c3ccc([N+](=O)[O-])cc3)o2)C([O-])=N1.[Na+],AC50,Cytochrome P450 2D6,inactive
Cc1ccc(-c2nc(NCCCO)c3ccccc3n2)cc1,AC50,[7],79.6 µM (active)
Clc1ncccc1/N=c1\ssnc1Cl,IC50,[8],9.88 µM (active)
C[C@H](NC(=O)c1cc2c3ccccc3nc-2c[nH]1)C(=O)O,IC50,[9],> 80 µM (inactive)
COc1cc(/C=N/Nc2cc(C)nc(NS(=O)(=O)c3ccc(C)cc3)n2)ccc1O,IC50,[10],> 100 µM (inactive)
same,IC50,[11],> 100 µM (not active)
Cc1ccc(C(=O)O/N=C\c2ccc(N3CCCCC3)c([N+](=O)[O-])c2)cc1,AC50,Cytochrome P450 3A4,22.4 µM (inconclusive)
same,CC50,[12],> 40 µM (active)
same,AC50,Cytochrome P450 2D6,inconclusive
COc1ccc2c(c1)CCc1c[nH]nc1-2,AC50,[13],> 120 µM (inactive)
CC(C)=CCC/C(C)=C/CNC(=O)C[C@H]1C[C@H](C(=O)N2CCOCC2)[C@@]2(C)c3[nH]c4cc(CCC(=O)N(C)C)ccc4c3CCN2C1=O,AC50,[14],1.33 µM (active)
same,AC50,[15],1.11 µM (active)
same,IC50,Protein Wnt-3a,23.6 µM (inactive)
O=[N+]([O-])c1ccc(/C=N/Nc2ccnc3cc(Cl)ccc23)o1,AC50,[16],15.3 µM (active)
same,AC50,INS1,9.06 µM (active)
O=C(N[C@@H]1C/C=C\C[C@@H](CC(=O)N(CCO)Cc2ccccc2)C(=O)NC[C@H](c2ccccc2)OC1=O)OCC1c2ccccc2-c2ccccc21,AC50,[14],4.32 µM (active)
same,AC50,[15],7.04 µM (active)
same,IC50,Protein Wnt-3a,8.93 µM (active)
N=c1oc2cc(O)ccc2cc1C(=O)Nc1ccc(F)cc1,AC50,[13],14.5 µM (active)
NCCc1cc(O)c(O)cc1O,IC50,[9],> 80 µM (inactive)
COc1ccc(-c2nnc(SCC(=O)N(C)Cc3cccs3)[nH]2)cc1,IC50,[5],> 99 µM (inactive)
same,IC50,[6],> 99 µM (inactive)
CO[C@@H]1COC(=O)CCC[C@@H](C)[C@H](OC)COC(=O)CCC[C@H]1C,AC50,Cytochrome P450 2D6,inconclusive
O=C(c1ccc(C(F)(F)F)cc1)C1CCCN(Cc2ccncc2)C1 (stereo not drawn),IC50,Protein Wnt-3a,5.15 µM (active)
CCn1c(=O)cc(OCC(=O)NCCC(C)C)c2ccccc21,IC50,[10],> 100 µM (inactive)
same,IC50,[11],> 100 µM (not active)
Cc1n[nH]c(NC(=O)/C=C/c2ccccc2)n1,AC50,[16],17.8 µM (active)
same,EC50,[17],1.09 µM (active)
Cc1cc(C)nc(NCc2ccc(O)c(O)c2)n1,IC50,[18],27 µM (active)
Cc1ccc(-c2nc(NC(=O)CSc3ccc4ccccc4n3)ns2)cc1,IC50,[10],> 100 µM (inactive)
same,IC50,[11],> 100 µM (not active)
CCC12CN3CCN(CC(C3)C1O)C2 (stereo not drawn),IC50,[10],> 100 µM (inactive)
same,IC50,[11],> 100 µM (not active)
CCCCN1CCc2cc(/C=C3\C(=O)NC(=S)N(C4CC4)C3=O)ccc21,IC50,[5],68.2 µM (inactive)
same,IC50,[6],57.1 µM (inactive)
Cc1cc(O)nc(N=N/C(=N/Nc2ccccc2C)c2ccccc2)n1,AC50,HEK293,4.66 µM (active)
same,IC50,[2],1.46 µM (active)
same,IC50,[4],1.36 µM (active)
O=C1C(/C=N/Cc2ccncc2)=C(O)c2ccccc21,AC50,[13],7.11 µM (active)
CCCCCCCn1c(=N)n(CC(O)c2ccco2)c2ccccc21 (stereo not drawn),IC50,[2],1.79 µM (active)
same,IC50,[4],3.55 µM (active)

# Source: ChEMBL document CHEMBL1201862, “PubChem BioAssay data set” (2004)
